From patent publication US4299839A, “Novel pesticides and pesticidal compositions cyclopropanecarboxylates and pesticidal method” (priority 1979, dated 1981)
Like-named read-outs stand apart in the source and are kept apart here.

Columns and labels:
green rice leafhoppers = test: Utility Example 1: emulsifiable concentrate sprayed over rice seedlings, green rice leafhopper mortality; type: in vivo; conditions: 30% emulsifiable concentrate diluted 300-fold, 100 ml/pot, 24 hours; cis/trans 50/50
Experimental: To 30 parts of each of Compounds (1) to (38) were added 50 parts of xylene and 20 parts of Sorpol SM-200 (a surfactant, trademark of Toho Chemical Co., Ltd.). The mixture was stirred well and dissolved to obtain a 30% emulsifiable concentrate.
The emulsifiable concentrate prepared from Compounds (7), (11), (12), (15), (17), (21) and (22) [Each compound is a mixture of cis- and trans-isomer in a ratio 50/50] in Formulation Example 5 were each diluted 300-fold with water. Then, each of the dilutions was sprayed over rice seedlings 25 days after sowing at the rate of 100 ml/pot. The pot was covered with a wire net and 15 green rice leafhoppers were released under the net. After 24 hours, the leafhoppers were examined for deaths. The mortality (%) was not less than 90% for each of Compounds (7), (11), (12), (15), (17), (21) and (22).

houseflies = test: Utility Example 3: settling mist method, mortality test against houseflies, oil preparations of Formulation Example 3; type: in vivo; conditions: oil preparation of Formulation Example 3 (0.1 part compound + 0.08 part permethrin per 100 parts), 24 hours; cis/trans 50/50
Experimental: To 0.1 part of each of Compounds (1) to (38) was added 0.08 part of permethrin, followed by the addition of a sufficient amount of kerosene to make 100 parts. The mixture was stirred to obtain an oil preparation of each compound.
By the settling mist method, a mortality test against houseflies was carried out using the oil preparations obtained in Formulation Example 3 from Compounds (1), (5), (7), (9), (11), (12), (15), (17) and (28) [Each compound is a mixture of cis- and trans-isomer in a ratio 50/50]. After 24 hours, the flies were examined for deaths. The mortality (%) was not less than 90% for each of Compounds (1), (5), (7), (9), (11), (12), (15), (17) and (28).

guppies = test: Fish Toxicity Test; type: in vivo; conditions: rank; 50% of female guppies killed during 48 hours, 20° C.; [Mixture] = cis/trans 50/50
Experimental: (§1) The mixture was stirred well to prepare a test water. Ten female guppies from 3 to 4 months of age were released into the test water and maintained at 20° C. The concentration of the test compound at which 50% of the guppies were killed during the ensuring 48 hours was determined. [This concentration is referred to as TLm (medium tolerance limit, ppm)].
(§2) A rank corresponds to TLm of not less than 10 ppm.
(§3) B rank corresponds to TLm of 0.5-10 ppm.
(§4) C rank corresponds to TLm of not more than 0.5 ppm.

Light Stability Test = type: physicochemical; conditions: ultraviolet light, wavelength=3600 A, 31°-35° C., on glass plate
Experimental: Into 2.0 ml of acetone were dissolved 80 mg of each test compound. A 5 μl portion of the solution was taken and spread on a glass plate (Micro Standard Cover Glass, 18 m/m No. 1, 200 pcs, Matsunami Glass Ind., Ltd.) and the acetone was evaporated. The specimen was exposed to ultraviolet light from a fluorescent lamp (Tokyo Shibaura Electric Co., Ltd., FL20BL, glow-type, 100 V, 24.5 W, wavelength=3600 A) which was fixed just above the specimen at a distance of 11 cm at a temperature of 31°-35° C. for a predetermined exposure time. The test liquid was washed away with 1.0 ml of methanol containing 0.04% of dioctyl phthalate as an internal reference and high-speed liquid chromatography was carried out on the washings to determine the residual amount of the test compound.

Fish Toxicity Test = type: in vivo; conditions: guppy, water; rank; 50% of female guppies killed during 48 hours, 20° C.; [Mixture] = cis/trans 50/50; read-out: TLm (medium tolerance limit)
Experimental: as §1, §2, §3, §4

[1] = system: housefly (Musca domestica); test: Mortality test against houseflies by topical application; type: in vivo
Experimental: Each test compound was accurately weighed and a 1% solution and an 0.1% solution of the sample in acetone were prepared. A 1 μl portion of either of the above solutions was micropipetted onto the thoracic dorsal part of each female adult housefly (Musca domestica) under ether anaesthesia and the fly was released in a high-walled dish together with feed. The dish was covered with a metal-wire net and maintained at 25° C. After 24 hours, the test flies were inspected for deaths and the mortality (%) was calculated. Thirty test flies were used per concentration group.

[2] = 1μg/fly, female adult, 24 hours, 25° C., [Mixture] = cis/trans 50/50, read-out: Mortality (%)
[3] = 10μg/fly, female adult, 24 hours, 25° C., [Mixture] = cis/trans 50/50, read-out: Mortality (%)

Structure (SMILES): CC1(C)C(CC(Cl)(Cl)Cl)C1C(=O)OC(C#N)c1cccc(Oc2ccc(Br)cc2)c1 (stereo not drawn) [(17), 3-(4-Bromophenoxy)-α-cyanobenzyl 2,2-dimethyl-3-(2,2,2-trichloroethyl)cyclopropanecarboxylate]
- Mortality (%) (green rice leafhoppers): not less than 90%

Structure (SMILES): CC(Cl)(Cl)CC1C(C(=O)OCc2cccc(Oc3ccccc3)c2)C1(C)C (stereo not shown) [(5), 3-Phenoxybenzyl 2,2-dimethyl-3-(2,2-dichloropropyl)cyclopropanecarboxylate]
- Mortality (%) (houseflies): not less than 90%

Structure (SMILES): C#CC(OC(=O)[C@@H]1[C@@H](CC(Cl)(Cl)Cl)C1(C)C)c1cccc(Oc2ccccc2)c1 (relative stereo) [Compound (11) [Trans-isomer], 3-Phenoxy-α-ethynylbenzyl 2,2-dimethyl-3-(2,2,2-trichloroethyl)cyclopropanecarboxylate]
- TLm (medium tolerance limit) (guppies): A (A rank corresponds to TLm of not less than 10 ppm)

Structure (SMILES): CC1(C)C(CC(Cl)(Cl)Cl)C1C(=O)OCc1cccc(Oc2ccccc2)c1 (stereo not shown) [(1), 3-Phenoxybenzyl 2,2-dimethyl-3-(2,2,2-trichloroethyl)cyclopropanecarboxylate]
- Mortality (%) (houseflies): not less than 90%

Structure (SMILES): C#CC(OC(=O)C1C(CC(Cl)(Cl)Cl)C1(C)C)c1cccc(Oc2ccc(Br)cc2)c1 (stereo not drawn) [(22), 3-(4-Bromophenoxy)-α-ethynylbenzyl 2,2-dimethyl-3-(2,2,2-trichloroethyl)cyclopropanecarboxylate]
- Mortality (%) (green rice leafhoppers): not less than 90%

Structure (SMILES): C=CCC1=C(C)C(OC(=O)C2C(C=C(C)C)C2(C)C)CC1=O (stereo not shown) [Allethrin, reference compound]
- Residue (%) (Light Stability Test; exposure time 3.5 hrs.): 14%
- Residue (%) (Light Stability Test; exposure time 3 days): 0%
- LC50 at 48 h (Fish Toxicity Test): ≤ 0.5 µg/mL
- mortality at 1 µg/fly ([1]; 24 h): 33.3%
- mortality at 10 µg/fly ([1]; 24 h): 100%

Structure (SMILES): CC1(C)C(CC(Cl)(Cl)Cl)C1C(=O)OCN1C(=O)C2=C(CCCC2)C1=O (stereo not shown) [Compound (37) [Mixture], 3,4,5,6-Tetrahydrophthalimidomethyl 2,2-dimethyl-3-(2,2,2-trichloroethyl)cyclopropane carboxylate]
- LC50 at 48 h (Fish Toxicity Test): 0.5 to 10 µg/mL
- mortality at 1 µg/fly ([1]; 24 h): 40%
- mortality at 10 µg/fly ([1]; 24 h): 56.7%

Structure (SMILES): C#CC(OC(=O)[C@@H]1[C@H](CC(C)(Cl)Cl)C1(C)C)c1cccc(Oc2ccccc2)c1 (stereo partly drawn) [Compound (13) [Cis-isomer], 3-Phenoxy-α-ethynylbenzyl 2,2-dimethyl-3-(2,2-dichloropropyl)cyclopropanecarboxylate]
- TLm (medium tolerance limit) (guppies): A (A rank corresponds to TLm of not less than 10 ppm)

Structure (SMILES): CC1(C)[C@H](CC(Cl)(Cl)Cl)[C@H]1C(=O)OC(C#N)c1cccc(Oc2ccccc2)c1 (stereo partly drawn) [Compound (7) [Trans-isomer], 3-Phenoxy-α-cyanobenzyl 2,2-dimethyl-3-(2,2,2-trichloroethyl)cyclopropanecarboxylate]
- TLm (medium tolerance limit) (guppies): B (B rank corresponds to TLm of 0.5-10 ppm)

Structure (SMILES): CC1(C)C(CC(Cl)(Cl)Cl)C1C(=O)OCc1cccc(OC=C(Cl)Cl)c1 (stereo not shown) [Compound (33) [Mixture], 3-(2,2-dichlorovinyloxy)benzyl 2,2-dimethyl-3-(2,2,2-trichloroethyl)cyclopropanecarboxylate]
- LC50 at 48 h (Fish Toxicity Test): ≥ 10 µg/mL
- mortality at 1 µg/fly [1, 2]: 6.7%
- mortality at 10 µg/fly [1, 3]: 33.3%

Structure (SMILES): CC1(C)C(CC(Cl)(Cl)Cl)C1C(=O)OC(C#N)c1cccc(OC=C(Cl)Cl)c1 (stereo not drawn) [Compound (34) [Mixture], 3-(2,2-dichlorovinyloxy)-α-cyanobenzyl 2,2-dimethyl-3-(2,2,2-trichloroethyl)cyclopropanecarboxylate]
- Residue (%) (Light Stability Test; exposure time 3.5 hrs.): 100%
- Residue (%) (Light Stability Test; exposure time 3 days): 88%
- Residue (%) (Light Stability Test; exposure time 5 days): 44%
- LC50 at 48 h (Fish Toxicity Test): ≥ 10 µg/mL
- mortality at 1 µg/fly [1, 2]: 56.7%
- mortality at 10 µg/fly [1, 3]: 100%

Structure (SMILES): CC(Cl)(Cl)CC1C(C(=O)OC(C#N)c2cccc(Oc3ccccc3)c2)C1(C)C (stereo not drawn) [Compound (9), 3-Phenoxy-α-cyanobenzyl 2,2-dimethyl-3-(2,2-dichloropropyl)cyclopropanecarboxylate]
- Mortality (%) (houseflies): not less than 90%
